# Source: PMC6702328, “A VDAC1-Derived N-Terminal Peptide Inhibits Mutant SOD1-VDAC1 Interactions and Toxicity in the SOD1 Model of ALS” (Frontiers in Cellular Neuroscience, 2019)
# What was measured:
# ΔN-VDAC1 = target: T1, ΔN-VDAC1 (Mus musculus, UniProt Q60932); test: Channel conductance of N-terminally truncated VDAC1 reconstituted into a planar lipid bilayer; type: biochemical, murine; conditions: after addition of 40 μg/ml SOD1, mean ± SEM
# T1 construct: inferred from pET21a vector, XhoI cloning and Ni-NTA purification) (C); made in house; host or cells: Escherichia coli BL21(DE3)
# T1 sequence (Q60932 40-296, stated change not applied): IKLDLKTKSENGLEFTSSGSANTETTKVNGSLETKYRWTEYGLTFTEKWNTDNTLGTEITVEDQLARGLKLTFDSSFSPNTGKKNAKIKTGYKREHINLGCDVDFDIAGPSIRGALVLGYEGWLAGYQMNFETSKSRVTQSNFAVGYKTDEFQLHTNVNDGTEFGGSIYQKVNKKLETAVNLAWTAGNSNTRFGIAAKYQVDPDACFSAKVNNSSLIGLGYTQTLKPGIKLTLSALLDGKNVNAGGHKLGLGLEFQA
# Procedure: (§1) Protein expression was induced for 3 h using 1 mM isopropyl-β-D-thiogalactopyranoside (IPTG; Sigma). Proteins were purified on agarose-packed nickel-nitrilotriacetic acid resin (Ni-NTA; Qiagen) in the presence of 8 M urea. Refolding of the eluted protein was performed essentially as described previously ([Hiller et al., 2008]).
# The reconstitution of recombinant WT or ΔN-VDAC1 into a planar lipid bilayer (PLB) prepared from soybean asolectin, and subsequent single channel current recordings and data analysis were carried out as described previously ([Gincel et al., 2001]). Currents were recorded under voltage-clamp conditions before and 5 min after the addition of 40 μg of recombinant hSOD1^wt, hSOD1^G93A, or hSOD1^G85R to the cis compartment using a Bilayer Clamp BC-535B amplifier (Warner Instrument, Hamden, CT, United States). Current amplitude histograms were prepared using AxoGraph X software. Relative conductance was determined as the average steady-state conductance at a given voltage normalized to the conductance at 10 mV, the maximal conductance. Relative conductance-voltage plots were prepared using Microsoft Excel software.
# (C) Relative conductance of ΔN-VDAC1 as a function of voltage in a step from 60 to –60 mV before (▲) and after addition of SOD1^WT (Δ). Relative conductance (conductance/maximal conductance) was determined as the average steady-state conductance at a given voltage normalized to the conductance at 10 mV, taken as the maximal conductance. […] (E–H) Similar experiments as in (A–D), except that mutant SOD1^G93A was used. (I–L) Similar experiments as in (A–D), except that mutant SOD1^G85R was used.
# [1] = target: T2, recombinant full length VDAC1 (Mus musculus, UniProt Q60932); test: Channel conductance of full length VDAC1 reconstituted into a planar lipid bilayer; type: biochemical, murine; conditions: for Conductance, VDAC1 + SOD1: planar lipid bilayer, after addition of 40 μg/ml SOD1, mean ± SEM, SEM
# T2 construct: inferred from pET21a vector, XhoI cloning and Ni-NTA purification) (C); made in house; host or cells: Escherichia coli BL21(DE3)
# T2 sequence (Q60932 14-296): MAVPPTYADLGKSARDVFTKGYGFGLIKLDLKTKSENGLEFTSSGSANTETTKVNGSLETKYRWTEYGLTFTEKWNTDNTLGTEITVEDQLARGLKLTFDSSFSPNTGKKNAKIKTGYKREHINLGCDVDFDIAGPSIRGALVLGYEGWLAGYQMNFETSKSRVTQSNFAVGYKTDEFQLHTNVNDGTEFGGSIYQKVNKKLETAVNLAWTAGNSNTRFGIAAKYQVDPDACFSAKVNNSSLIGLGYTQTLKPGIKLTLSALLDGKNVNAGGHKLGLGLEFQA
# Procedure: as §1
# Currents were recorded under voltage-clamp conditions before and 5 min after the addition of 40 μg of recombinant hSOD1^wt, hSOD1^G93A, or hSOD1^G85R to the cis compartment using a Bilayer Clamp BC-535B amplifier (Warner Instrument, Hamden, CT, United States). Current amplitude histograms were prepared using AxoGraph X software. […] Relative conductance-voltage plots were prepared using Microsoft Excel software.
# Relative conductance (conductance/maximal conductance) was determined as the average steady-state conductance at a given voltage normalized to the conductance at 10 mV, considered the maximal conductance.
# [2] = system: SH-SY5Y cells expressing mutant SOD1^G93A; test: Apoptosis, acridine orange/ethidium bromide staining, SOD1^G93A; type: cell-based; conditions: peptide 20 μM, 5 h, 24 h post-transfection, n = 3
# Procedure: (§2) Apoptotic cell death was also analyzed using Acridine Orange (AcOr)/ethidium bromide (EtBr) staining ([McGahon et al., 1995]). Cells in 24-well plates were washed with 200 μl PBS and 10 μl of a solution containing […] in PBS was added. The cells were then visualized by fluorescence microscopy (ZOE fluorescence cell imager, Bio-Rad), images were recorded and cells at early and late apoptotic stages were counted.
# (§3) NSC-34 (A), U-87MG (B), or A549 (C) cells were incubated with the indicated concentrations of (1-26)N-Ter-Antp (∙), D-(15-26) (19-26)N-Ter-Antp (▲), (1-20)N-Ter-Antp (∘), (5-20)N-Ter-Antp (□) or (10-20)N-Ter-Antp (◆) peptide for 5 h. Cell death was analyzed using PI staining and flow cytometry. […] Cell viability analysis was performed with the CellTiter 96 AQueous one-solution cell proliferation assay with ELISA at 490 nm. […] The significance of quantitative analysis of triplicates of different biological repeats (n = 3) was performed by Student’s t-test; ^∗∗P < 0.01. […] Twenty-four hours post-transfection, the cells were incubated for 5 h with (10-20)N-Ter-Antp peptide (20 μM) and then analyzed for apoptosis using acridine orange and ethidium bromide staining, as described previously ([McGahon et al., 1995]). Fluorescence microscopy images were analyzed and about 100 to 300 cells were counted for each treatment in representative microscopic fields. […]
# NSC-34 cells = test: Cell death, PI staining and flow cytometry, NSC-34; type: cell-based, mouse; conditions: 5 h, serum-free medium, 37°C
# Procedure: (§4) NSC-34 cells, a mouse motor neuron-like hybrid cell line, the A549 human lung adenocarcinoma and U-87MG human glioblastoma cell lines were incubated with the (1-26)N-Ter-Antp, D-(15-26)N-Ter-Antp, (1-20)N-Ter-Antp, (5-20)N-Ter-Antp, or (10-20)N-Ter-Antp peptides in the appropriate serum-free growth medium for 5 h at 37°C. Cells were harvested, and analyzed for cell death using propidium iodide (PI) staining and flow cytometry. For XTT, the CellTiter 96 AQueous one-solution cell proliferation assay was used to follow cell viability as described previously ([Leyton-Jaimes et al., 2016]).
# (§5) NSC-34 (A), U-87MG (B), or A549 (C) cells were incubated with the indicated concentrations of (1-26)N-Ter-Antp (∙), D-(15-26) (19-26)N-Ter-Antp (▲), (1-20)N-Ter-Antp (∘), (5-20)N-Ter-Antp (□) or (10-20)N-Ter-Antp (◆) peptide for 5 h. Cell death was analyzed using PI staining and flow cytometry. […] Cell viability analysis was performed with the CellTiter 96 AQueous one-solution cell proliferation assay with ELISA at 490 nm. […] The significance of quantitative analysis of triplicates of different biological repeats (n = 3) was performed by Student’s t-test; ^∗∗P < 0.01. […] Twenty-four hours post-transfection, the cells were incubated for 5 h with (10-20)N-Ter-Antp peptide (20 μM) and then analyzed for apoptosis using acridine orange and ethidium bromide staining, as described previously ([McGahon et al., 1995]). Fluorescence microscopy images were analyzed and about 100 to 300 cells were counted for each treatment in representative microscopic fields. The significance of quantitative analysis of triplicates of different biological repeats (n = 3) was performed by one-way Anova; ^∗∗P < 0.01.
# [3] = system: SH-SY5Y cells expressing mutant SOD1^G37R; test: Apoptosis, acridine orange/ethidium bromide staining, SOD1^G37R; type: cell-based; conditions: peptide 20 μM, 5 h, 24 h post-transfection, n = 3
# Procedure: as §2, §3
# A549 cells = test: Cell death, PI staining and flow cytometry, A549; type: cell-based, human; conditions: 5 h, serum-free medium, 37°C
# Procedure: as §4, §5
# [4] = system: NSC-34 cells transfected to express human mutant SOD1^G93A; test: Rescue of mutant SOD1^G93A toxicity, cell viability (XTT / CellTiter 96 AQueous); type: cell-based, mouse; conditions: NSC-34 cells expressing SOD1^G93A, increasing peptide concentrations, 5 h, XTT assay; n = 3
# Procedure: as §4, §5
# Cell viability was quantified using the XTT assay and apoptosis using acridine orange and ethidium bromide staining. […] Importantly, this effect was observed using the three non-cell death-inducing VDAC1-derived N-terminal peptides, i.e., the (1-20)-N-Ter-Antp, (5-20)-N-Ter-Antp and (10-20)-N-Ter-Antp peptides.
# [5] = system: SH-SY5Y cells expressing SOD1^G93A or SOD1^G37R; test: Co-localization of misfolded SOD1 with VDAC1, immunostaining and confocal microscopy; type: cell-based; conditions: peptide 20 μM, 5 h, 24 h post-transfection; anti-VDAC1 and B8H10 antibodies
# Procedure: For immunostaining, SH-SY5Y cells (4.5 × 10^4) were grown on sterilized coverslips in 24-well plates. 30 h post-transfection, cells were fixed using 4% paraformaldehyde (PFA; diluted in PBS) for 15 min, and then washed 3 times with PBS (5 min each wash). Cells were then permeabilized with 0.3% Triton X-100 in PBS for 5 min followed by washing with PBS. Cells were then blocked for 1 h with blocking buffer (1% BSA free fatty acids diluted in PBS). Anti-VDAC1 polyclonal antibody (ab15895) and mouse anti misfolded SOD1 (B8H10, Medimabs) were incubated at room temperature for 1–2 h in a buffer of 1% BSA free fatty acids and 0.3% Triton-X100 in PBS. Following incubation with primary antibodies, cells were washed with PBS and incubated with fluorescent conjugated secondary Alexa Flour 488 anti-rabbit and Alexa flour 647 anti-mouse antibodies. The coverslips were carefully dried and mounted on slides using Immumount (Immumount^TM, Thermo). After overnight drying, images were acquired on an Olympus IX81 confocal microscope.
# Twenty-four hours post-transfection, the cells were incubated for 5 h with (10-20)N-Ter-Antp peptide (20 μM) and then analyzed for co-localization using a confocal microscope. […] Scale bar, 10 μm.
# U-87MG cells = test: Cell death, PI staining and flow cytometry, U-87MG; type: cell-based, human; conditions: 5 h, serum-free medium, 37°C
# Procedure: as §4, §5
# SOD1^WT = target: T3, SOD1^WT (Homo sapiens, UniProt P00441); test: Microscale thermophoresis (MST) binding to SOD1^WT; conditions: read-out: EC50 (binding affinity, dissociation constant) of peptide to SOD1^WT
# T3 construct: made in house; host or cells: sf-9 cells
# T3 sequence (P00441 whole entry): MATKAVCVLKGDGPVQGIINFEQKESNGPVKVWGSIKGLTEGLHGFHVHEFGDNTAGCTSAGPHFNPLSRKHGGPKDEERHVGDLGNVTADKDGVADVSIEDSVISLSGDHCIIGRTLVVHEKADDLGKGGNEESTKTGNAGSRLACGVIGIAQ
# Procedure: (§6) Recombinant hSOD1^wt, hSOD1^G93A, and hSOD1^G85R were expressed in sf-9 cells and purified by hydrophobic interaction chromatography using phenyl-Sepharose 6 Fast Flow high sub (Amersham Biosciences), followed by ion exchange chromatography using a HiTrap Q-Sepharose anion exchange column (Amersham Biosciences), as described previously ([Hayward et al., 2002]).
# (§7) Microscale thermophoresis analysis was performed using a NanoTemper Monolith NT.115 apparatus, as recently described ([Wienken et al., 2010]; [Zillner et al., 2012]). […] The results are presented as the bound fraction, calculated as follows: fraction bound 100 × (F − Fmin)/(Fmax − Fmin).
# (§8) MST measures any variation in the thermal movement of a fluorescently labeled binding partner. The subsequent fluorescence depletion in a heated spot of the protein solution is measured as a function of increasing interacting partner concentration, with dissociation constants (KD) values being derived from the depletion curves ([Wienken et al., 2010]; Figure 1D).
# (§9) Molecular weight standards are presented. […] After 20 min of incubation, 3–5 μl aliquots were loaded into MST-grade glass capillaries (NanoTemper Technologies) and thermophoresis was measured with a NanoTemper Monolith-NT115 system. The percentage change in normalized fluorescence (ΔF Norm %) is plotted as a function of protein concentration. […]
# SOD1^G93A = target: T4, SOD1^G93A (Homo sapiens, UniProt P00441, G94A); test: Microscale thermophoresis (MST) binding to SOD1^G93A
# T4 construct: made in house; host or cells: sf-9 cells
# T4 sequence (P00441 whole entry G94A): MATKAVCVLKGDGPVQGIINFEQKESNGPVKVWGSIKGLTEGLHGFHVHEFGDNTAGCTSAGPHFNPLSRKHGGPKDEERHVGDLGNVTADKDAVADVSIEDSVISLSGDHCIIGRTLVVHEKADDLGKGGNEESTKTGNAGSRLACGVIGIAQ
# Procedure: as §6, §7, §8, §9
# SOD1^G85R = target: T5, SOD1^G85R (Homo sapiens, UniProt P00441, G86R); test: Microscale thermophoresis (MST) binding to SOD1^G85R; conditions: fluorescently labeled SOD1^G85R 230 nM, peptide 0.001–50 μM, 10 mM HEPES pH 7.4, 20 min, duplicate reads of triplicate experiments, read-out: EC50 (binding affinity, dissociation constant) of peptide to SOD1^G85R
# T5 construct: made in house; host or cells: sf-9 cells
# T5 sequence (P00441 whole entry G86R): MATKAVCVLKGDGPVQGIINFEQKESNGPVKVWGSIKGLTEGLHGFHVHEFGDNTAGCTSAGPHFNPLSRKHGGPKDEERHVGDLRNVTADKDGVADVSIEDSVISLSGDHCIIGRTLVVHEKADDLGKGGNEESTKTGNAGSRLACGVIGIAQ
# Procedure: as §6, §7, §8, §9
Molecule,"Conductance, ΔN-VDAC1 + SOD1 (ΔN-VDAC1)",Cell death induction in NSC-34 cells (NSC-34 cells),Cell death induction in A549 cells (A549 cells),Cell death induction in U-87MG cells (U-87MG cells),also measured
SOD1^WT: recombinant wild type human SOD1 expressed in sf-9 cells,3.69 ± 0.13 nS,,,,"effect on VDAC1 current ([1]; highest concentration 60 μg/ml, current-time traces at −10 or 10 mV): had no effect on the current; Conductance, VDAC1 + SOD1 [1]: 3.84 ± 0.1 nS"
"10-LGKSARDVFTK-20- RQIKIWFQNRRMKWKK [(10-20)-N-Ter-Antp, like (1-20)-N-Ter-Antp but shortened by nine amino acids at the N-terminus]",,could not induce cell death,could not induce cell death,could not induce cell death,decrease of SOD1^G93A-mediated cell death [2]: 68%; decrease of SOD1^G37R-mediated cell death [3]: 81%; Effect on SOD1^G93A toxicity (cell viability) [4]: reduced the toxic effect of SOD1^G93A in a concentration-dependent manner; Co-localization of misfolded SOD1 with VDAC1 [5]: co-localization was greatly eliminated
SOD1^G85R: recombinant human mutant SOD1 G85R expressed in sf-9 cells,3.92 ± 0.08 nS,,,,"Conductance, VDAC1 + SOD1 [1]: 2.3 ± 0.35 nS"
"5-PTYADLGKSARDVFTK-20- RQIKIWFQNRRMKWKK [(5-20)-N-Ter-Antp, like (1-20)-N-Ter-Antp but shortened by four amino acids at the N-terminus]",,could not induce cell death,could not induce cell death,could not induce cell death,Effect on SOD1^G93A toxicity (cell viability) [4]: reduced the toxic effect of SOD1^G93A in a concentration-dependent manner
1-MAVPPTYADLGKSARDVFTKG YGFGL-26- RQIKIWFQNRRMKWKK [(1-26)-N-Ter-Antp],,induced massive cell death,induced massive cell death,induced massive cell death,
14-RDVFTKGYGFGL-26- RQIKIWFQNRRMKWKK [D-(15-26)-N-Ter-Antp],,induced massive cell death,induced massive cell death,induced massive cell death,
CSCC[C@H](N)C(=O)N[C@@H](C)C(=O)N[C@H](C(=O)N1CCC[C@H]1C(=O)N1CCC[C@H]1C(=O)N[C@H](C(=O)N[C@@H](Cc1ccc(O)cc1)C(=O)N[C@@H](C)C(=O)N[C@@H](CC(=O)O)C(=O)N[C@@H](CC(C)C)C(=O)NCC(=O)N[C@@H](CCCCN)C(=O)N[C@@H](CO)C(=O)N[C@@H](C)C(=O)N[C@@H](CCCNC(=N)N)C(=O)N[C@@H](CC(=O)O)C(=O)N[C@H](C(=O)N[C@@H](Cc1ccccc1)C(=O)N[C@H](C(=O)N[C@@H](CCCCN)C(=O)NCC(=O)N[C@@H](Cc1ccc(O)cc1)C(=O)NCC(=O)N[C@@H](Cc1ccccc1)C(=O)NCC(=O)N[C@@H](CC(C)C)C(=O)O)[C@@H](C)O)C(C)C)[C@@H](C)O)C(C)C [(1-26)N-Terminal],,,,,EC50 (SOD1^WT): > 200 µM; EC50 (SOD1^G93A): 3.75 µM; EC50 (SOD1^G85R): 3.75 µM
SOD1^G93A: recombinant human mutant SOD1 G93A expressed in sf-9 cells,3.45 ± 0.01 nS,,,,
"159-ETAKSRVTQSNFAVGYKT-177 [LP3, reference compound]",,,,,"Binding to mutant SOD1 compared with the (1-26)-N-terminal peptide (SOD1^G93A; MST, fluorescently labeled SOD1^G93A 675 nM, LP3 6–40 μM, HEPES buffer): significantly lower binding to mutant SOD1"
